Results reported in the supplement of paper PMC11451515.

Tested on: NOMO1
Assay: cell viability relative to DMSO control; higher = less cytotoxic
Conditions: 48 h
Outline: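 Viability was expressed as a per-plate percentage of DMSO wells, with cell-free wells as background. Leukemia cells (NOMO1 or SEM at 500 cells/well, P12-Ichikawa at 1000 cells/well) were adapted for at least four passages in each medium and seeded in 1536-well plates (5 μl). Library compounds in DMSO were pin-dosed over an 11-point threefold series from 47 μM to 0.79 nM, and CellTiter-Glo One luminescence was read after 48 h at 37°C.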

[1] = HPLM + 10% dialyzed FBS, 0.000781 µM
[2] = HPLM + 10% dialyzed FBS, 0.00234 µM
[3] = HPLM + 10% dialyzed FBS, 0.00702 µM
[4] = HPLM + 10% dialyzed FBS, 0.0211 µM
[5] = HPLM + 10% dialyzed FBS, 0.0632 µM
[6] = HPLM + 10% dialyzed FBS, 0.19 µM
[7] = HPLM + 10% dialyzed FBS, 0.569 µM
[8] = HPLM + 10% dialyzed FBS, 1.71 µM
[9] = HPLM + 10% dialyzed FBS, 5.12 µM
[10] = HPLM + 10% dialyzed FBS, 15.4 µM
[11] = HPLM + 10% dialyzed FBS, 46.1 µM
[12] = RPMI 5 mM glucose + 10% FBS, 0.000781 µM
[13] = RPMI 5 mM glucose + 10% FBS, 0.00234 µM
[14] = RPMI 5 mM glucose + 10% FBS, 0.00702 µM
[15] = RPMI 5 mM glucose + 10% FBS, 0.0211 µM
[16] = RPMI 5 mM glucose + 10% FBS, 0.0632 µM
[17] = RPMI 5 mM glucose + 10% FBS, 0.19 µM
[18] = RPMI 5 mM glucose + 10% FBS, 0.569 µM
[19] = RPMI 5 mM glucose + 10% FBS, 1.71 µM
[20] = RPMI 5 mM glucose + 10% FBS, 5.12 µM
[21] = RPMI 5 mM glucose + 10% FBS, 15.4 µM
[22] = RPMI 5 mM glucose + 10% FBS, 46.1 µM
[23] = RPMI 5 mM glucose + 10% dialyzed FBS, 0.000781 µM
[24] = RPMI 5 mM glucose + 10% dialyzed FBS, 0.00234 µM
[25] = RPMI 5 mM glucose + 10% dialyzed FBS, 0.00702 µM
[26] = RPMI 5 mM glucose + 10% dialyzed FBS, 0.0211 µM
[27] = RPMI 5 mM glucose + 10% dialyzed FBS, 0.0632 µM
[28] = RPMI 5 mM glucose + 10% dialyzed FBS, 0.19 µM
[29] = RPMI 5 mM glucose + 10% dialyzed FBS, 0.569 µM
[30] = RPMI 5 mM glucose + 10% dialyzed FBS, 1.71 µM
[31] = RPMI 5 mM glucose + 10% dialyzed FBS, 5.12 µM
[32] = RPMI 5 mM glucose + 10% dialyzed FBS, 15.4 µM
[33] = RPMI 5 mM glucose + 10% dialyzed FBS, 46.1 µM

Compound	cell viability [1] [%]	cell viability [2] [%]	cell viability [3] [%]	cell viability [4] [%]	cell viability [5] [%]	cell viability [6] [%]	cell viability [7] [%]	cell viability [8] [%]	cell viability [9] [%]	cell viability [10] [%]	cell viability [11] [%]	cell viability [12] [%]	cell viability [13] [%]	cell viability [14] [%]	cell viability [15] [%]	cell viability [16] [%]	cell viability [17] [%]	cell viability [18] [%]	cell viability [19] [%]	cell viability [20] [%]	cell viability [21] [%]	cell viability [22] [%]	cell viability [23] [%]	cell viability [24] [%]	cell viability [25] [%]	cell viability [26] [%]	cell viability [27] [%]	cell viability [28] [%]	cell viability [29] [%]	cell viability [30] [%]	cell viability [31] [%]	cell viability [32] [%]	cell viability [33] [%]
O=C(/C=C/c1ccc(/C=C/C(=O)Nc2ccc(C3=NCCN3)cc2)cc1)Nc1ccc(C2=NCCN2)cc1	103	108	111	108	111	116	117	123	121	111	122	104	98.8	115	117	123	106	106	115	117	125	131	88.2	107	95.5	106	117	117	113	112	108	112	102
O=C(O)CCCCCC(=O)NN=C1CCCC1	99.6	96	116	122	107	120	126	132	122	130	133	105	111	111	112	102	100	112	103	116	123	129	91.2	92.8	97.9	110	105	115	96.6	109	118	121	103
C/C1=C2/[N]3[Co+]456([OH])<-[N]7=C1[C@@H](CCC(N)=O)C(C)(C)/C7=C/C1=[N]->4C(=C(/C)C4=[N]->5[C@@](C)([C@H]3[C@H](CC(N)=O)[C@@]2(C)CCC(=O)NC[C@@H](C)OP(=O)([O-])O[C@H]2[C@@H](O)[C@@H](n3c[n]->6c5cc(C)c(C)cc53)O[C@@H]2CO)[C@@](C)(CC(N)=O)[C@@H]4CCC(N)=O)/[C@@](C)(CC(N)=O)[C@@H]1CCC(N)=O	94.9	110	102	103	113	105	100	77.2	87.9	80.4	70.6	95.1	95	87.9	95.4	90.5	90.3	97.3	82.2	81.4	89	75.5	95.6	95.8	101	94.6	90.7	97.7	97.5	91.8	86.1	89.9	72.7
COc1ccc(F)c(F)c1C(=O)c1cnc(NC2CCN([S+](C)(=O)[O-])CC2)nc1N	106	135	123	117	119	124	118	93.6	45.6	7.59	3.32	104	118	103	102	109	109	100	98.9	46.3	15.1	3.38	105	101	102	106	107	102	83.8	90	54.1	15	2.57
C[C@H](NC(=O)Cc1cc(F)cc(F)c1)C(=O)N[C@H](C(=O)OC(C)(C)C)c1ccccc1	98.4	110	98.2	101	111	91.2	101	73.8	91.6	91.3	80.3	88.9	84.9	92.2	80.8	92	87.4	76.1	79.3	76.4	81.9	75.4	95.3	85.3	94	85.2	101	92.9	91.4	92.7	92.6	79.5	82.8
C[S+](=O)([O-])Oc1ccc2c(NC(N)=O)c(C(=O)c3ccc(Cl)cc3Cl)oc2c1	115	103	114	113	140	139	127	128	105	100	42.7	105	111	104	115	120	119	125	117	115	106	50.3	127	111	122	126	119	116	115	128	135	105	76.8
CN(CCOc1ccc(CC2SC(=O)NC2=O)cc1)c1ccccn1 (configuration not stated)												110	113	121	108	115	117	113	112	127	113	109											
C[C@@H]1CC[C@@]2(CC[C@]3(C)\C(=C/C[C@@H]4[C@@]5(C)CC[C@H](O)C(C)(C)[C@@H]5CC[C@@]34C)[C@@H]2[C@H]1C)C(O)=O	111	120	116	113	111	127	130	113	113	111	119	113	108	120	106	112	108	98.7	104	102	112	106	104	120	117	125	124	113	121	112	114	106	114
